# Key:
# Aβ42 = experiment: Screening for γ-secretase-modulating activity, Method 2: Aβ42 Alphalisa in supernatant of SKNBE2 cells carrying APP 695 wild type (Table 12c); assay type: cell-based; settings: Method 2, Table 12c, incubated overnight
# Procedure, shortened: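 SKNBE2 cells expressing wild-type APP695, 10^4 cells/well, exposed to compound overnight at 37 °C; secreted Aβ42 and Aβtotal in supernatant measured by AlphaLISA sandwich immunoassays (Aβ42: C-terminal/N-terminal antibodies; Aβtotal: N-terminal/4G8). IC50 from 4-parameter fit of % untreated control.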
# Aβtotal = experiment: Screening for γ-secretase-modulating activity, Method 1: Aβtotal sandwich ELISA in supernatant of SKNBE2 cells carrying APP 695 wild type (Tables 12a, 12b); assay type: cell-based
# Procedure, shortened: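 SKNBE2 cells expressing wild-type APP 695 were plated a day ahead, then exposed to compound in Ultraculture with 1% glutamine for 18 hours. Supernatant Aβtotal captured on 6E10 overnight at 4° C, detected with biotinylated 4G8 and streptavidin-peroxidase with a fluorogenic substrate. IC50 from 4-parameter dose-response fits.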
# [1] = Homo sapiens, Method 1, Table 12a, SKNBE2 cells carrying APP 695 wild type, compounds 18 hours, ELISA, curve top and bottom fixed to 100 and 0, hill slope 1
# [2] = Homo sapiens, Table 12b, Method 1, SKNBE2 cells carrying APP 695 wild type, cell supernatant ELISA, averaged IC50 values
IC50 (Aβ42; Homo sapiens) [nM],IC50 (Aβtotal; [1]) [nM],IC50 (Aβtotal; [2]) [nM],IC50 (Aβ42) [nM],"IC50 (Aβtotal; Table 12b, Method 1, SKNBE2 cells carrying APP 695 wild type, cell supernatant ELISA, averaged IC50 values) [nM]",SMILES
155,> 5000,> 5010,–,–,COc1cc(Nc2cccn3cc(-c4ccc(F)cc4)nc23)ccc1-n1cnc(C)c1 [Compound 1]
–,> 3000,> 3020,–,–,COc1cc(Nc2cccn3c(Cl)c(-c4ccc(F)cc4)nc23)ccc1-n1cnc(C)c1 [Compound 2]
166,> 3000,> 3020,–,–,COc1cc(Nc2cccn3cc(C4CCOCC4)nc23)ccc1-n1cnc(C)c1 [Compound 4]
–,> 1000,> 3020,–,–,COc1cc(Nc2cccn3c(C)c(-c4ccccc4)nc23)ccc1-n1cnc(C)c1 [Compound 5]
38,> 3000,> 3020,–,–,COc1cc(Nc2cccn3c(C)c(-c4ccccc4Cl)nc23)ccc1-n1cnc(C)c1 [Compound 15]
–,> 3000,> 3020,–,–,COc1cc(Nc2cccn3c(C)c(-c4c(F)cccc4F)nc23)ccc1-n1cnc(C)c1 [Compound 27]
13,> 1000,> 10000,–,–,COc1cc(Nc2cccn3c(C)c(-c4ccccc4C(F)(F)F)nc23)ccc1-n1cnc(C)c1 [Compound 29]
71,> 3000,> 3020,–,–,COc1cccc(-c2cn3cccc(Nc4ccc(-n5cnc(C)c5)c(OC)c4)c3n2)c1 [Compound 33]
309,> 3000,> 5010,–,–,COc1cc(Nc2cccn3cc(C)nc23)ccc1-n1cnc(C)c1 [Compound 50]
407,> 3000,–,–,–,Cc1ncn(-c2ccc(Nc3cccn4cc(-c5ccccc5C)nc34)cc2)n1 [Compound 71]
–,–,–,5,> 3020,COc1nc(Nc2cccn3c(C)c(-c4ccccc4C(F)(F)F)nc23)ccc1-n1cnc(C)c1 [Compound 138]
